The values that follow come from patent US20210179577A1, “AROMATIC SULFONAMIDE DERIVATIVES FOR THE TREATMENT OF ISCHEMIC STROKE” (Bayer Aktiengesellschaft, priority 2017, published 2021).

The target in test [1] is T1, human P2X4 (Homo sapiens, UniProt Q99571).
T1 sequence (Q99571 1-388): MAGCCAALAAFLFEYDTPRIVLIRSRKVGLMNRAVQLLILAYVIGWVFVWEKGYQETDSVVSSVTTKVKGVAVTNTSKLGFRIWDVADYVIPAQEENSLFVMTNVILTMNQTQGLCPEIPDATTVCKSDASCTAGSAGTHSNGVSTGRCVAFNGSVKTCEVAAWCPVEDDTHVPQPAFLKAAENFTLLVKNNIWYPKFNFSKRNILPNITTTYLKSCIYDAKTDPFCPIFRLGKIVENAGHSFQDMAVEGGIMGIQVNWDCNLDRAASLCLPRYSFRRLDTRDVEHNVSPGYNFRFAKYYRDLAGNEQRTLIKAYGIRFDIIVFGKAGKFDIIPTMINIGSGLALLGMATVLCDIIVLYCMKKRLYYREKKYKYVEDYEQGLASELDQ
Put plainly: Human P2X4 HEK Cell Electrophysiology Assay A (PatchLiner). The format is cell-based. Further details: expressed in transfected cells; host or cells: HEK293. The conditions noted are these: ATP 5 μM, -80 mV; read-out: Human P2X4 HEK Cells (PatchLiner Electrophysiology) avg IC50. How it is done:
HEK293 cells stably expressing human P2X4 were seeded in T75 cell culturing flasks at a density of 7*106 cells and incubated overnight. P2X4 function was assayed using the automated patch clamp platform PatchLiner (Nanion) in single hole mode. Composition of extracellular buffer was (in mM) NaCl 145, KCl 4, HEPES 10, CaCl2) 1, MgCl2 0.5, D-glucose monohydrate 10, pH=7.4. The intracellular buffer contained (in mM): CsF 135, EGTA 1, HEPES 10, NaCl 10, pH 7.2. On the day of the assay, cells were harvested using Accumax (Sigma) and were resuspended in extracellular buffer. The ligand agonist, adenosine 5′-trisphosphate (ATP, 5 μM) was added in a volume of 5 μL, directly washed off by extracellular buffer (40 μL). The cells were voltage clamped at −80 mV and ligand was applied every 5 min. for 20 min. Over this period the agonist response was stable and compounds were measured in single concentration per well mode. Compounds diluted in extracellular buffer (final assay DMSO concentration 0.3%) were added in a volume of 40 μL and allowed to incubate for 8 min at room temperature. The data was analyzed based on the decrease in peak current amplitude and normalized to the agonist control. Mean values were plotted in Excel XLFit to determine IC50 values, percentage of maximal inhibition and the Hill coefficients.

Test [2] deals with Sprague Dawley (SD) rats. Put plainly: tMCAO-Induced Ischemic Stroke Model in Rats. Format: in vivo, rat. The following applies: per os twice a day for seven days, from day 8 on, p<5% vs vehicle treated tMCAO-group. How it is done: Transient middle cerebral artery occlusion (tMCAO) was performed in approximately 3 months old male Sprague Dawley (SD) rats according to the method described by Schmid-Elsaesser et al. [Stroke. 1998; 29(10):2162-2170]. In particular, the right common carotid artery (CCA) was exposed through a midline neck incision and carefully dissected free from surrounding nerves and fascia—from its bifurcation to the base of the skull. […] The ECA was dissected further distally and coagulated along with the terminal lingual and maxillary artery branches, just before their bifurcation. The internal carotid artery (ICA) was isolated and carefully separated from the adjacent vagus nerve, and the pterygopalatine artery was ligated close to its origin with a 5-0 nylon suture. Thereafter, a 4-0 silk suture was tied loosely around the mobilized ECA stump, and a 4 cm length of Doccol 4-0 monofilament suture (coated with silicone) was inserted through the proximal ECA into the ICA and thence into the circle of Willis, effectively occluded the MCA. The surgical wound was closed and the animals were returned to their cages for recovery from anesthesia. Two hours after occlusion, rats were re-anesthetized and the monofilament was withdrawn to allow reperfusion. The wound was closed again and rats were returned to their cages.
Four groups of rats with 12-15 rats per group were included into the study. […]

As usually defined, the IC50 is the concentration that inhibits the measured activity by half. `NS(=O)(=O)c1cc(NC(=O)Cc2ccccc2Cl)ccc1-n1cc(C(F)(F)F)cn1` [Example 19, 2-(2-Chlorophenyl)-N-{3-sulfamoyl-4-[4-(trifluoromethyl)-1H-pyrazol-1-yl]phenyl}acetamide]: in test [1], the IC50 is 111 nM.
As to `N#Cc1cnn(-c2ccc(NC(=O)Cc3ccccc3Cl)cc2S(N)(=O)=O)c1` [Example 39, 2-(2-Chlorophenyl)-N-[4-(4-cyano-1H-pyrazol-1-yl)-3-sulfamoylphenyl]acetamide], the “modified neurologic severity score (mNSS)” value in test [2] is listed as “significant smaller mNSS than the vehicle treated tMCAO-group”. For the same molecule, the IC50 in test [1] was found to be 138 nM.
For the molecule `NS(=O)(=O)c1cc(NC(=O)Cc2ccccc2Cl)ccc1-c1cnn(C(F)F)c1` [Example 326, 2-(2-Chlorophenyl)-N-{4-[1-(difluoromethyl)-1H-pyrazol-4-yl]-3-sulfamoylphenyl}acetamide], in test [1], the IC50 was determined as 57 nM.
With `NS(=O)(=O)c1cc(NC(=O)Cc2ccccc2Cl)cnc1-n1cc(C(F)(F)F)cn1` [Example 380, 2-(2-Chlorophenyl)-N-{5-sulfamoyl-6-[4-(trifluoromethyl)-1H-pyrazol-1-yl]pyridin-3-yl}acetamide], in test [1], the IC50 was determined as 320 nM.
